Measured values: ChEMBL document CHEMBL4385643, “Design of a brain-penetrant CDK4/6 inhibitor for glioblastoma” (Bioorg Med Chem Lett, 2019)

Assays:
[1] = target: Serine/threonine-protein kinase PAK 3 (Homo sapiens) (UniProt O75914); assay: Inhibition of recombinant full length human His-tagged PAK3 expressed in baculovirus expression system at 0.1 uM using serine/threonine-20 peptide as substrate incubated for 60 mins by Z'-LYTE assay relative to control
[2] = target: Mitogen-activated protein kinase 1 (Homo sapiens) (UniProt P28482); assay: Inhibition of recombinant full length human GST-tagged ERK2 expressed in Escherichia coli expression system at 0.1 uM using serine/threonine-3 peptide as substrate incubated for 60 mins by Z'-LYTE assay relative to control
[3] = target: Macrophage colony-stimulating factor 1 receptor (Homo sapiens) (UniProt P07333); assay: Inhibition of recombinant human His-tagged CSF1R catalytic domain (538 to 910 residues) expressed in Baculovirus expression system at 0.1 uM using tyrosine-1 peptide as substrate incubated for 60 mins by Z'-LYTE assay relative to control
[4] = target: Serine/threonine-protein kinase SIK2 (Homo sapiens) (UniProt Q9H0K1); assay: Inhibition of recombinant full length human GST-tagged SIK2 expressed in baculovirus expression system at 0.1 uM using serine/threonine-25 peptide as substrate incubated for 60 mins by Z'-LYTE assay relative to control
[5] = target: MAP kinase-interacting serine/threonine-protein kinase 2 (Homo sapiens) (UniProt Q9HBH9); assay: Inhibition of tracer 236 binding to full length human GST-tagged MKNK2 expressed in baculovirus expression system at 0.1 uM measured after 60 mins by Lanthascreen assay relative to control
Chain of MAP kinase-interacting serine/threonine-protein kinase 2 (Homo sapiens) (Q9HBH9 whole entry, looked up, the tested form may be a part): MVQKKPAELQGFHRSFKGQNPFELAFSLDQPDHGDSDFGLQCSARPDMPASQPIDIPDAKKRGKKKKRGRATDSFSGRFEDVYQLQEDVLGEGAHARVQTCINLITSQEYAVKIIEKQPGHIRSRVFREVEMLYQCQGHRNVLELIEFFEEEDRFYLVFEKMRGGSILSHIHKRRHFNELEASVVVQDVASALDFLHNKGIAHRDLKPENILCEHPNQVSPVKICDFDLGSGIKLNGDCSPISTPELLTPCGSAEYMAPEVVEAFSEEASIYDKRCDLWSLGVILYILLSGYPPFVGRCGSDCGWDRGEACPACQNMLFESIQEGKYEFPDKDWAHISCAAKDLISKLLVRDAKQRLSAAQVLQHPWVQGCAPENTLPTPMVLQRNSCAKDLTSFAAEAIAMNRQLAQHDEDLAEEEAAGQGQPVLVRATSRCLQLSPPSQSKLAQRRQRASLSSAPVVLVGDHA

[6] = target: Serine/threonine-protein kinase PLK3 (Homo sapiens) (UniProt Q9H4B4); assay: Inhibition of recombinant human GST-tagged PLK3 catalytic domain (58 to 340 residues) expressed in baculovirus expression system at 0.1 uM using serine/threonine-16 peptide as substrate incubated for 60 mins by Z'-LYTE assay relative to control
[7] = target: Serine/threonine-protein kinase TBK1 (Homo sapiens) (UniProt Q9UHD2); assay: Inhibition of recombinant full length human GST-tagged TBK1 expressed in insect expression system at 0.1 uM using serine/threonine-5 peptide as substrate incubated for 60 mins by Z'-LYTE assay relative to control
[8] = target: Serine/threonine-protein kinase Sgk2 (Homo sapiens) (UniProt Q9HBY8); assay: Inhibition of recombinant human GST-tagged SGK2 catalytic domain (54 to 427 residues) expressed in baculovirus expression system at 0.1 uM using serine/threonine-6 peptide as substrate incubated for 60 mins by Z'-LYTE assay relative to control
Chain of Serine/threonine-protein kinase Sgk2 (Homo sapiens) (Q9HBY8 whole entry, the tested form may be a part): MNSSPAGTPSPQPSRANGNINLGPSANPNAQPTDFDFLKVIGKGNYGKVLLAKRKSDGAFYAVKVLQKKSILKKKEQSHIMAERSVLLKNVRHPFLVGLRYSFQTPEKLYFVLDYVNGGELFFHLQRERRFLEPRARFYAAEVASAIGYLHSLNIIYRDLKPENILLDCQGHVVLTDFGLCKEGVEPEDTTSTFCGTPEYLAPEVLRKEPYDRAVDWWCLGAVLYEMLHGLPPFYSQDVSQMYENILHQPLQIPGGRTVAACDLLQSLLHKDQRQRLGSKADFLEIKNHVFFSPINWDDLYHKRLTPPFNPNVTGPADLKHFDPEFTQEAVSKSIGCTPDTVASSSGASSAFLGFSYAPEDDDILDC

[9] = target: Inhibitor of nuclear factor kappa-B kinase subunit alpha (Homo sapiens) (UniProt O15111); assay: Inhibition of recombinant full length human His-tagged IKKalpha expressed in baculovirus expression system at 0.1 uM incubated for 60 mins by Adapta assay relative to control
[10] = target: CDK18/Cyclin Y (Homo sapiens) (UniProt Q07002+Q8ND76); assay: Inhibition of recombinant full length human GST-tagged CDK18/Cyclin Y (2 to end amino acids) expressed in insect expression system at 0.1 uM using serine/threonine-12 peptide as substrate incubated for 60 mins by Z'-LYTE assay relative to control
[11] = target: Mitogen-activated protein kinase kinase kinase 10 (Homo sapiens) (UniProt Q02779); assay: Inhibition of tracer 236 binding to recombinant full length human GST-tagged MLK2 expressed in baculovirus expression system at 0.1 uM measured after 60 mins by Lanthascreen assay
Chain of Mitogen-activated protein kinase kinase kinase 10 (Homo sapiens) (Q02779 whole entry, looked up, the tested form may be a part): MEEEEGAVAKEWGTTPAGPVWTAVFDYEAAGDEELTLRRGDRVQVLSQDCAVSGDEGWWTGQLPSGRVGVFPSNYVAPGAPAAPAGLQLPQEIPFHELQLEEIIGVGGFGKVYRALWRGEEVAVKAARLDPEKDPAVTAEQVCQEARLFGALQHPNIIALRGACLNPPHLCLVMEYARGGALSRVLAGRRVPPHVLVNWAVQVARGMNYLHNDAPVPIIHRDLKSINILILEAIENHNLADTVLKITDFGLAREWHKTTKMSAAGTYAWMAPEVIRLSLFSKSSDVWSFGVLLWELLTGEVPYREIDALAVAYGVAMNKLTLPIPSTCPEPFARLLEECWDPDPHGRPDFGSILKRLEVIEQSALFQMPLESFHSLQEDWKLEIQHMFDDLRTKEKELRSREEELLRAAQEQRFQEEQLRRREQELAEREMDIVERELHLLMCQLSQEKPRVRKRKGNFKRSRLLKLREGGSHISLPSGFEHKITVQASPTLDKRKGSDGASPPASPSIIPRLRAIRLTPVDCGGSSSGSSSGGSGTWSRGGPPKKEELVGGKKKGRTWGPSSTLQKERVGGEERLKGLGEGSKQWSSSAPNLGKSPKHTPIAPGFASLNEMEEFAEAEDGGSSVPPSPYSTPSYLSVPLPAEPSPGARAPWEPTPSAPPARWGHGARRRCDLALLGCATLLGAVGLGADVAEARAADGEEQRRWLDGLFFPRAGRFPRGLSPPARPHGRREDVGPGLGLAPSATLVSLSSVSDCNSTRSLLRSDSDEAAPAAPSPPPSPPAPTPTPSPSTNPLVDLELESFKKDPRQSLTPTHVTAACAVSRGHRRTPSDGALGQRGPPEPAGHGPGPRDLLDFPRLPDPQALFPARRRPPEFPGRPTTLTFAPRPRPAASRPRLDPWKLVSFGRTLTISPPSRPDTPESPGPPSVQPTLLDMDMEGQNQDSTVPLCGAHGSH

[12] = target: Tyrosine-protein kinase TXK (Homo sapiens) (UniProt P42681); assay: Inhibition of recombinant human GST-tagged TXK catalytic domain (260 to 527 residues) expressed in baculovirus expression system at 0.1 uM using tyrosine-6 peptide as substrate incubated for 60 mins by Z'-LYTE assay relative to control
[13] = target: Serine/threonine-protein kinase PLK2 (Homo sapiens) (UniProt Q9NYY3); assay: Inhibition of recombinant full length human GST-tagged PLK2 expressed in baculovirus expression system at 0.1 uM using serine/threonine-16 peptide as substrate incubated for 60 mins by Z'-LYTE assay relative to control
[14] = target: Serine/threonine-protein kinase B-raf (Homo sapiens) (UniProt P15056); assay: Inhibition of recombinant full length human GST-tagged BRAF expressed in baculovirus expression system at 0.1 uM using serine/threonine-3 peptide as substrate incubated for 60 mins by Z'-LYTE assay relative to control
Chain of Serine/threonine-protein kinase B-raf (Homo sapiens) (P15056 whole entry, the tested form may be a part): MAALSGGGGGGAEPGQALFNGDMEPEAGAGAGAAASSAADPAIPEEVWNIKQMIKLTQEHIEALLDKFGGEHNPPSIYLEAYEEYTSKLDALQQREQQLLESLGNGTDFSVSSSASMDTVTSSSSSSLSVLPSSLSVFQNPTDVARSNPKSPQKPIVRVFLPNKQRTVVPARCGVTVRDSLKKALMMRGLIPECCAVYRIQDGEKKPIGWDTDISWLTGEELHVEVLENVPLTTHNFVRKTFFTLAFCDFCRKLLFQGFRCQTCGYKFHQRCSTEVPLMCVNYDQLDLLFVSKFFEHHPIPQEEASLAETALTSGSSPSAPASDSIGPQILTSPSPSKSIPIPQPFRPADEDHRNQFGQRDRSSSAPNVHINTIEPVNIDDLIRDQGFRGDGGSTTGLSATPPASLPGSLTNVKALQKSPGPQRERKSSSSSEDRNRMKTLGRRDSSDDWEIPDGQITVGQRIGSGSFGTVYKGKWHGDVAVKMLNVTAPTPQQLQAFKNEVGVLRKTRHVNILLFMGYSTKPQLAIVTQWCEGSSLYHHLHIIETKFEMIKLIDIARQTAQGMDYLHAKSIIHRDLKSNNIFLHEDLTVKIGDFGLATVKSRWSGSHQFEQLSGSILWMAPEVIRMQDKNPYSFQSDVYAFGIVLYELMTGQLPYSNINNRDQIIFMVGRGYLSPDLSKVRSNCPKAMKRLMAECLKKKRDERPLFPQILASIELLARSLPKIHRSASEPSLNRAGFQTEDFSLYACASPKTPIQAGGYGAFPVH

[15] = system: RAF proto-oncogene serine/threonine-protein kinase (Homo sapiens), P04049 [Y340D,Y341D]; assay: Inhibition of recombinant human GST-tagged RAF1 Y340D Y341D mutant catalytic domain (306 to 648 residues) expressed in baculovirus expression system at 0.1 uM using serine/threonine-3 peptide as substrate incubated for 60 mins by Z'-LYTE assay relative to control
Chain of RAF proto-oncogene serine/threonine-protein kinase (Homo sapiens), P04049 [Y340D,Y341D] (P04049 whole entry Y340D/Y341D, the tested form may be a part): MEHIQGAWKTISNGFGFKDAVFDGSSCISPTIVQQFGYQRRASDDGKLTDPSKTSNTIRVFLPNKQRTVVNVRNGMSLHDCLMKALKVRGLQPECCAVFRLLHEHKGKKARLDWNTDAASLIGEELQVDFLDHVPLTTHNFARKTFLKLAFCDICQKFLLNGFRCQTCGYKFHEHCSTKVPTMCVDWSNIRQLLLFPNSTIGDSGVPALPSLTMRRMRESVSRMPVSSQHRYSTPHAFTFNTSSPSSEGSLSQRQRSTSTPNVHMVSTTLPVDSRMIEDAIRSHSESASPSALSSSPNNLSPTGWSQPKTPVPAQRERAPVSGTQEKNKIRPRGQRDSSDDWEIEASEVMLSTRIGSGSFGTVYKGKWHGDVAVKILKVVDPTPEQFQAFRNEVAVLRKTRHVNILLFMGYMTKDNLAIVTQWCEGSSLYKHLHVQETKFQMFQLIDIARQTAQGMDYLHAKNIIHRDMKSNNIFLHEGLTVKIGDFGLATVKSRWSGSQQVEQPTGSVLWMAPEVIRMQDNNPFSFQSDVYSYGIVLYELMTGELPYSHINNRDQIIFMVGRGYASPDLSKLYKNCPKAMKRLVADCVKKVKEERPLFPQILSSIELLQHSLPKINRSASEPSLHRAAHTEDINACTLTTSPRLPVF

[16] = target: Serine/threonine-protein kinase Nek9 (Homo sapiens) (UniProt Q8TD19); assay: Inhibition of recombinant human GST-tagged NEK9 catalytic domain (347 to 732 residues) expressed in baculovirus expression system at 0.1 uM using serine/threonine-7 peptide as substrate incubated for 60 mins by Z'-LYTE assay relative to control
Chain of Serine/threonine-protein kinase Nek9 (Homo sapiens) (Q8TD19 whole entry, the tested form may be a part): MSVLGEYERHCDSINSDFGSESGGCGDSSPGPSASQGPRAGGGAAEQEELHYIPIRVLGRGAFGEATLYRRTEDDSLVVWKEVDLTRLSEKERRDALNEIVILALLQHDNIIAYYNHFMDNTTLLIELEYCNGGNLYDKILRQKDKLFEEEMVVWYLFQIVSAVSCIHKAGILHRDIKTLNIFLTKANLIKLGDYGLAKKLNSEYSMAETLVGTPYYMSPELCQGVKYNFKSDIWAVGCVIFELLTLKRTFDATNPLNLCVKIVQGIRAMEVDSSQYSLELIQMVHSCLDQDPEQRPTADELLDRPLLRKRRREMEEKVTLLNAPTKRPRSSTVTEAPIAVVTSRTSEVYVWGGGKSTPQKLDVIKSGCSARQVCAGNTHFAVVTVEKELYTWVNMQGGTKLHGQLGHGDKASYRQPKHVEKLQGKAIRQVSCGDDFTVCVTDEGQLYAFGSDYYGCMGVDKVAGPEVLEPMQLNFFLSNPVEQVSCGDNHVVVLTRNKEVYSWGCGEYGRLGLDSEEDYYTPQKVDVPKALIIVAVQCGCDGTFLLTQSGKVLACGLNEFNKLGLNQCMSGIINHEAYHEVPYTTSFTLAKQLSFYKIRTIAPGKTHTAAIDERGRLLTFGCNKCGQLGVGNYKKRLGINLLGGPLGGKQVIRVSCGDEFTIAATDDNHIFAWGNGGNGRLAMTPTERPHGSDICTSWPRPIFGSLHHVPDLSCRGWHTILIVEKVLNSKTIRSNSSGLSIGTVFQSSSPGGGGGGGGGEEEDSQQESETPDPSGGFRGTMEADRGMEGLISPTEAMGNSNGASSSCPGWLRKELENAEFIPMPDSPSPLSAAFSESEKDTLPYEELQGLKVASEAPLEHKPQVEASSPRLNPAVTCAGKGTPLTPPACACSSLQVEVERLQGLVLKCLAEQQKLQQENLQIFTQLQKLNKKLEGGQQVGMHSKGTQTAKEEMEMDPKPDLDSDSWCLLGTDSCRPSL

[17] = target: Serine/threonine-protein kinase MARK1 (Homo sapiens) (UniProt Q9P0L2); assay: Inhibition of recombinant full length human GST-tagged MARK1 expressed in baculovirus expression system at 0.1 uM using serine/threonine-21 peptide as substrate incubated for 60 mins by Z'-LYTE assay relative to control
[18] = target: High affinity nerve growth factor receptor (Homo sapiens) (UniProt P04629); assay: Inhibition of recombinant human His-tagged TRKA catalytic domain (441 to 796 residues) expressed in baculovirus expression system at 0.1 uM using tyrosine-1 peptide as substrate incubated for 60 mins by Z'-LYTE assay relative to control
[19] = target: Calcium/calmodulin-dependent protein kinase type II subunit beta (Homo sapiens) (UniProt Q13554); assay: Inhibition of recombinant full length human His-tagged CAMK2beta expressed in baculovirus expression system at 0.1 uM using serine/threonine-17 peptide as substrate incubated for 60 mins by Z'-LYTE assay relative to control
Chain of Calcium/calmodulin-dependent protein kinase type II subunit beta (Homo sapiens) (Q13554 whole entry, the tested form may be a part): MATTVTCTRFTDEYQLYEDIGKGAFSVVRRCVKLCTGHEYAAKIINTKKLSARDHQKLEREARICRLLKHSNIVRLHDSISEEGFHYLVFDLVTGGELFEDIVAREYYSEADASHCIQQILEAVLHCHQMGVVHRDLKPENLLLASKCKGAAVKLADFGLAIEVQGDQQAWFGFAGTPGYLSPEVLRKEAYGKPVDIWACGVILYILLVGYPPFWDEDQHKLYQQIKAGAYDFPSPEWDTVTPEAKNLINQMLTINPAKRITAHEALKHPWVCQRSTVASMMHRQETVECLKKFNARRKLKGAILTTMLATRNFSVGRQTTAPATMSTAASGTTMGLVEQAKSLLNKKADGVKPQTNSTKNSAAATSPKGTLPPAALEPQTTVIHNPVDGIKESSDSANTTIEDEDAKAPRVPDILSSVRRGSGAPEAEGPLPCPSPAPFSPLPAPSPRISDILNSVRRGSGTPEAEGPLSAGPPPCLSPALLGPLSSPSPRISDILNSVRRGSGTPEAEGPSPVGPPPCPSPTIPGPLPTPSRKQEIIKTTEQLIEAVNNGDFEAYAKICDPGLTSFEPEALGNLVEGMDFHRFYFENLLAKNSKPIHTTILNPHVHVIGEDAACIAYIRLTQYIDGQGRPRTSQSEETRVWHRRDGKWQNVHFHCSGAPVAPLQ

[20] = target: Angiopoietin-1 receptor (Homo sapiens) (UniProt Q02763); assay: Inhibition of recombinant human GST-tagged TIE2 (817 to 1101 residues) expressed in baculovirus expression system at 0.1 uM using tyrosine-5 peptide as substrate incubated for 60 mins by Z'-LYTE assay relative to control
[21] = target: Dual specificity tyrosine-phosphorylation-regulated kinase 4 (Homo sapiens) (UniProt Q9NR20); assay: Inhibition of recombinant full length human GST-tagged DYRK4 expressed in baculovirus expression system at 0.1 uM using serine/threonine-9 peptide as substrate incubated for 60 mins by Z'-LYTE assay relative to control
[22] = target: Serine/threonine-protein kinase MRCK alpha (Homo sapiens) (UniProt Q5VT25); assay: Inhibition of recombinant human His-tagged MRCKalpha catalytic domain (1 to 473 residues) expressed in baculovirus expression system at 0.1 uM using serine/threonine-13 peptide as substrate incubated for 60 mins by Z'-LYTE assay relative to control

| SMILES | inhibition [1] | inhibition [2] | inhibition [3] | inhibition [4] | inhibition [5] | inhibition [6] | inhibition [7] | inhibition [8] | inhibition [9] | inhibition [10] | inhibition [11] | inhibition [12] | inhibition [13] | inhibition [14] | inhibition [15] | inhibition [16] | inhibition [17] | inhibition [18] | inhibition [19] | inhibition [20] | also measured |
| --- | --- | --- | --- | --- | --- | --- | --- | --- | --- | --- | --- | --- | --- | --- | --- | --- | --- | --- | --- | --- | --- |
| CCN1CC2(C1)CN(c1ccc(Nc3ncc(F)c(-c4cnn5c4[C@H](C)CCCC5)n3)nc1)C2 | 8% | 6% | 88% | 26.5% | 75% | 7.5% | 8% | 27.5% | -2% | 30.5% | 18% | -1% | 3% | 4% | -0.5% | -1.5% | 16.5% | 20% | 20.5% | -0.5% | inhibition [21]: 3%; inhibition [22]: 1% |
| CCN1CCN(Cc2ccc(Nc3ncc(F)c(-c4cc(F)c5nc(C)n(C(C)C)c5c4)n3)nc2)CC1 [ABEMACICLIB] | 11.4% | 8% | 41.4% | 6% | 18.3% | -3.5% | 43% | 36.5% | 53.1% | 29% | 10.6% | 6.5% | 0.5% | 4.5% | 0% | 2% | 6% | 31% | 88% | -2% | inhibition [21]: 5%; inhibition [22]: 31.5% |
